Measurements as given in US10328053B2 (Gilead Sciences, Inc., priority 2016, dated 2019).

Key:
[1] = tested on: HBV AD38 viral particles in HepG2 cell line overexpressing NTCP; assay: HBV DNA Quantification Assay; format: cell-based; conditions: Hepatitis B virus, HepG2, 120 h, HBV-infected HepG2-NTCP cells, 5 days incubation, HBV DNA in culture supernatant (QuantiGene 2.0); geometric mean of a minimum of four determinations
Description: HBV DNA Quantification Assay
A HepG2 cell line overexpressing the HBV virus attachment receptor sodium-taurocholate cotransporting polypeptide (NTCP) was grown to confluency in DMEM growth medium, Dulbecco's Modified Eagle Medium without sodium pyruvate (Life Technologies, Rockville, Md.) supplemented with 10% FBS (Thermo Scientific, Waltham, Md.), 1% penicillin/streptomycin (Life Technologies, Rockville, Md.) and 2 mM L-glutamine (Life Technologies, Rockville, Md.) in T175 flasks. Cells were infected with HBV AD38 viral particles (Texcell, Frederick, USA) at 4000 genome equivalents per cell. After allowing viral infection to take place for 4 days, the infected cells were harvested from the flasks by trypsinization, washed twice with OptiMEM (Life Technologies, Rockville, Md.) and re-suspended in DMEM containing 2% FBS and 1% DMSO at a density of 0.25E6 cells/ml. Infected cells were seeded on 384 well collagen coated plates (Greiner, Austria) at a density of 20,000 cells/well containing serially diluted compounds of the present disclosure or DMSO (0.5%) in a final volume of 80 μl. The assay plates were incubated for a period of 5 days and the antiviral activity of the test compounds were assayed by detecting the presence of HBV DNA in the culture supernatant using the QuantiGene™ 2.0 nucleic acid quantification kit (Affymetrix, Santa Clara, Calif.).
The culture supernatant was harvested and treated with lysis buffer containing Proteinase K (Affymetrix, Santa Clara, Calif.). The supernatant was incubated with HBV viral DNA specific probes (Affymetrix, Santa Clara, Calif.) for 30 minutes at 55° C. This was followed by addition of 0.2M NaOH for 30 minutes at room temperature to denature the DNA, followed by addition of Neutralization buffer (Affymetrix, Santa Clara, Calif.). The resulting lysed and neutralized supernatant was then added to QuantiGene™ 2.0 384 well plates coated with capture oligonucleotides and incubated overnight at 55° C. The HBV specific probe set consists of Capture Extender oligonucleotides (CE's) and blocking probes. Following the overnight incubation, the wells were incubated for one hour sequentially with a Pre-Amplifier, Amplifier and Labeled probes conjugated to alkaline phosphatase with a wash step between incubations. After the final wash step, the alkaline phosphatase substrate (Luminol APS5) was added and the resulting luminescence signal was read in an EnVision Multilabel Plate Reader (PerkinElmer, Santa Clara, Calif.). The EC50 values were calculated from the fit of the dose—response curves to a four-parameter equation. All EC50 values represent geometric mean values of a minimum of four determinations.

[2] = Hepatic Stability Assay (in vitro half-life method); format: in vitro ADME; design: dose or concentration left out as unconfirmed; conditions: pooled cryopreserved hepatocytes, 37° C., 1×10^6 cells/mL, 0-6 hours, LC-MS/MS, 39.5 hours is the maximum detectable half life, read-out: t½ (converted)
Description: Hepatic Stability Assay The metabolic stability of certain compounds disclosed herein was assessed in vitro in pooled cryopreserved hepatocytes using the in vitro half-life method. Incubations were at 37° C. and final concentrations in the incubations were 1×10^6 cells/mL and […] test concentration of the compound. Aliquots were sequentially removed after 0, 1, 3 and 6 hours and analyzed by LC-MS/MS. In vitro half-life was determined by measuring the rate of disappearance of the compound and then scaled to predicted hepatic clearance using the well-stirred model. […] As such, compounds having a value of 39.5 may have a half live that exceeds 39.5 hours.

Structure (SMILES)	half-life [2] [min]	EC50 [1] [nM]
CNC(=O)C(C)(C)NC(=O)C(=O)c1c(C)c(C(=O)Nc2ccc(F)c(C(F)F)c2)n2c1CCC2 [Example 114, N-(3-(difluoromethyl)-4-fluorophenyl)-6-methyl-7-(2-((2-methyl-1-(methylamino)-1-oxopropan-2-yl)amino)-2-oxoacetyl)-2,3-dihydro-1H-pyrrolizine-5-carboxamide]		156
CNC(=O)C(C)(C)NC(=O)C(=O)c1c(C)c(C(=O)Nc2ccc(F)c(Cl)c2)n2c1CCC2 [Example 82, N-(3-chloro-4-fluorophenyl)-6-methyl-7-(2-((2-methyl-1-(methylamino)-1-oxopropan-2-yl)amino)-2-oxoacetyl)-2,3-dihydro-1H-pyrrolizine-5-carboxamide]		133
CNC(=O)C1(NC(=O)C(=O)c2c(C)c(C(=O)Nc3ccc(F)c(Cl)c3)n3c2CCC3(C)C)CC(F)(F)C1 [Example 15, N-(3-chloro-4-fluorophenyl)-7-(2-((3,3-difluoro-1-(methylcarbamoyl)cyclobutyl)amino)-2-oxoacetyl)-3,3,6-trimethyl-2,3-dihydro-1H-pyrrolizine-5-carboxamide]	30	
Cc1c(C(=O)C(=O)NC2(c3cnn[nH]3)CC2)c2n(c1C(=O)Nc1ccc(F)cc1)[C@@H]1C[C@@H]1C2 [Example 99, (1aR,6aR)-5-(2-((1-(1H-1,2,3-triazol-5-yl)cyclopropyl)amino)-2-oxoacetyl)-N-(4-fluorophenyl)-4-methyl-1,1a,6,6a-tetrahydrocyclopropa[b]pyrrolizine-3-carboxamide]	576	
Cc1c(C(=O)C(=O)N[C@H](C)C(F)(F)F)c2n(c1C(=O)Nc1ccc(F)c(Cl)c1)C(C)CC2 (mixture of isomers) [Example 20, N-(3-chloro-4-fluorophenyl)-3,6-dimethyl-7-(2-oxo-2-(((R)-1,1,1-trifluoropropan-2-yl)amino)acetyl)-2,3-dihydro-1H-pyrrolizine-5-carboxamide]	858	
Cc1c(C(=O)C(=O)NC2(c3c[nH]nn3)CC2)c2n(c1C(=O)Nc1ccc(F)c(C#N)c1)[C@@H]1C[C@@H]1C2 [Example 79, (1aR,6aR)-5-(2-((1-(1H-1,2,3-triazol-4-yl)cyclopropyl)amino)-2-oxoacetyl)-N-(3-cyano-4-fluorophenyl)-4-methyl-1,1a,6,6a-tetrahydrocyclopropa[b]pyrrolizine-3-carboxamide]	894	
CNC(=O)C1(NC(=O)C(=O)c2c(C)c(C(=O)Nc3ccc(F)c(C#N)c3)n3c2C[C@H]2C[C@H]23)CC(F)(F)C1 [Example 30, (1aR,6aR)—N-(3-cyano-4-fluorophenyl)-5-(2-((3,3-difluoro-1-(methylcarbamoyl)cyclobutyl)amino)-2-oxoacetyl)-4-methyl-1,1a,6,6a-tetrahydrocyclopropa[b]pyrrolizine-3-carboxamide]	1630	
Cc1c(C(=O)C(=O)NC2(c3cn(C)nn3)CC2)c2n(c1C(=O)Nc1ccc(F)c(Cl)c1)CCC2 [Example 98, N-(3-chloro-4-fluorophenyl)-6-methyl-7-(2-((1-(1-methyl-1H-1,2,3-triazol-4-yl)cyclopropyl)amino)-2-oxoacetyl)-2,3-dihydro-1H-pyrrolizine-5-carboxamide]	888	
Cc1c(C(=O)C(=O)NC2(c3nnn(C)n3)CC2)c2n(c1C(=O)Nc1ccc(F)c(Cl)c1)CCC2 [Example 50, N-(3-chloro-4-fluorophenyl)-6-methyl-7-(2-((1-(2-methyl-2H-tetrazol-5-yl)cyclopropyl)amino)-2-oxoacetyl)-2,3-dihydro-1H-pyrrolizine-5-carboxamide]	918	
Cc1c(C(=O)C(=O)NC2(c3c[nH]nn3)CC2)c2n(c1C(=O)Nc1ccnc(C(F)F)c1F)[C@@H]1C[C@@H]1C2 [Example 63, (1aR,6aR)-5-(2-((1-(1H-1,2,3-triazol-4-yl)cyclopropyl)amino)-2-oxoacetyl)-N-(2-(difluoromethyl)-3-fluoropyridin-4-yl)-4-methyl-1,1a,6,6a-tetrahydrocyclopropa[b]pyrrolizine-3-carboxamide]	672	
Cc1nnc(C2(NC(=O)C(=O)c3c(C)c(C(=O)Nc4ccc(F)c(Cl)c4)n4c3CCC4)CC2)[nH]1 [Example 51, N-(3-chloro-4-fluorophenyl)-6-methyl-7-(2-((1-(5-methyl-4H-1,2,4-triazol-3-yl)cyclopropyl)amino)-2-oxoacetyl)-2,3-dihydro-1H-pyrrolizine-5-carboxamide]	570	
CNC(=O)C1(NC(=O)C(=O)c2c(C)c(C(=O)Nc3ccc(F)c(Cl)c3)n3c2CCC3C)CC(F)(F)C1 (racemic) [Example 18, N-(3-chloro-4-fluorophenyl)-7-(2-((3,3-difluoro-1-(methylcarbamoyl)cyclobutyl)amino)-2-oxoacetyl)-3,6-dimethyl-2,3-dihydro-1H-pyrrolizine-5-carboxamide]	360	

More lines, main results first:

half-life [2] [min]	Structure (SMILES)	EC50 [1] [nM]
1170	Cc1c(C(=O)C(=O)NC2(c3c[nH]nn3)CC2)c2n(c1C(=O)Nc1cc(F)cc(F)c1)CCC2 [Example 76, 7-(2-((1-(1H-1,2,3-triazol-4-yl)cyclopropyl)amino)-2-oxoacetyl)-N-(3,5-difluorophenyl)-6-methyl-2,3-dihydro-1H-pyrrolizine-5-carboxamide]	
996	Cc1c(C(=O)C(=O)NC2(C(F)(F)F)COC2)c2n(c1C(=O)Nc1ccnc(C(F)F)c1F)C[C@H](F)C2 [Example 150, (R)—N-(2-(difluoromethyl)-3-fluoropyridin-4-yl)-2-fluoro-6-methyl-7-(2-oxo-2-((3-(trifluoromethyl)oxetan-3-yl)amino)acetyl)-2,3-dihydro-1H-pyrrolizine-5-carboxamide]	
888	Cc1nnc(C2(NC(=O)C(=O)c3c(C)c(C(=O)Nc4cc(F)c(F)c(F)c4)n4c3CCC4)CC2)o1 [Example 65, 6-methyl-7-(2-((1-(5-methyl-1,3,4-oxadiazol-2-yl)cyclopropyl)amino)-2-oxoacetyl)-N-(3,4,5-trifluorophenyl)-2,3-dihydro-1H-pyrrolizine-5-carboxamide]	
792	Cc1nnc(C2(NC(=O)C(=O)c3c(C)c(C(=O)Nc4ccc(F)c(Cl)c4)n4c3CCC4)CC2)o1 [Example 64, N-(3-chloro-4-fluorophenyl)-6-methyl-7-(2-((1-(5-methyl-1,3,4-oxadiazol-2-yl)cyclopropyl)amino)-2-oxoacetyl)-2,3-dihydro-1H-pyrrolizine-5-carboxamide]	
1020	Cc1c(C(=O)C(=O)NC2(c3c[nH]nn3)CC2)c2n(c1C(=O)Nc1cccc(F)c1)CCC2 [Example 69, 7-(2-((1-(1H-1,2,3-triazol-4-yl)cyclopropyl)amino)-2-oxoacetyl)-N-(3-fluorophenyl)-6-methyl-2,3-dihydro-1H-pyrrolizine-5-carboxamide]	
36	Cc1c(C(=O)C(=O)N[C@H](C)C(F)(F)F)c2n(c1C(=O)Nc1ccc(F)c(Cl)c1)C(C)(C)CC2 [Example 17, (R)—N-(3-chloro-4-fluorophenyl)-3,3,6-trimethyl-7-(2-oxo-2-((1,1,1-trifluoropropan-2-yl)amino)acetyl)-2,3-dihydro-1H-pyrrolizine-5-carboxamide]	
564	Cc1c(C(=O)C(=O)NC2(c3cnn[nH]3)CC2)c2n(c1C(=O)Nc1cc(Cl)ccc1F)CCC2 [Example 86, 7-(2-((1-(1H-1,2,3-triazol-5-yl)cyclopropyl)amino)-2-oxoacetyl)-N-(5-chloro-2-fluorophenyl)-6-methyl-2,3-dihydro-1H-pyrrolizine-5-carboxamide]	
2310	Cc1c(C(=O)C(=O)NC2(c3nncs3)CC2)c2n(c1C(=O)Nc1ccc(F)c(C#N)c1)[C@@H]1C[C@@H]1C2 [Example 58, (1aR,6aR)-5-(2-((1-(1,3,4-thiadiazol-2-yl)cyclopropyl)amino)-2-oxoacetyl)-N-(3-cyano-4-fluorophenyl)-4-methyl-1,1a,6,6a-tetrahydrocyclopropa[b]pyrrolizine-3-carboxamide]	
